Measured values published in patent US11124513B2, “Avibactam free acid” (Sandoz AG, priority 2016, dated 2021).
Where a name gives a salt, the structure may show the parent alone.

Assays:
[1] = Stability against temperature stress (dehydration, form conversion); type: physicochemical
[2] = stated in WO 2011/042560 A1; cited from earlier work
[3] = stated in WO 2011/042560 A1 (page 17); cited from earlier work
[4] = Thermogravimetric analysis; type: physicochemical; conditions: up to a temperature of about 130° C.; 10 K/min; crystalline Form 1 (FIG. 4)
Experimental: Thermogravimetric analysis (TGA) was performed on a Mettler TGA/DSC 1 instrument. The sample (6.30 mg) was heated in a 100 microL aluminum pan closed with an aluminum lid. The lid was automatically pierced at the beginning of the measurement. The sample was heated from 25 to 200° C. at a rate of 10 K/min. Nitrogen (purge rate 50 mL/min) was used as purge gas.

[5] = Differential scanning calorimetry; type: physicochemical; conditions: 10 K/min; crystalline Form 1 (FIG. 3)
Experimental: Differential scanning calorimetry was performed on a Mettler Toledo Polymer DSC R instrument. The sample (1.27 mg) was heated in a 40 microL aluminium pan with pierced aluminium lid from 25 to 160° C. at a rate of 10 K/min. Nitrogen (purge rate 50 mL/min) was used as purge gas.

bacteria = conditions: at clinically relevant doses; reported; cited from earlier work
[6] = Stability against moisture / hygroscopicity

SMILES	temperature above which the form dehydrates (to monohydrate form A) ([1]; temperature stress)	relative humidity above which the form is particularly stable [2]	tendency to lose water and hydrolyze [3]	weight loss, thermogravimetric analysis [4]	temperature up to which no thermal event is seen in the differential scanning calorimetry curve [5]	behaviour under temperature stress [1]	antibacterial activity of its own (bacteria)	hygroscopicity [6]	stability against moisture ([6]; increased relative humidity levels)
NC(=O)[C@@H]1CC[C@@H]2CN1C(=O)N2OS(=O)(=O)[O-].O.O.[Na+] [form E]	above 60 °C	> 70%	tends to lose water and to hydrolyze	–	–	–	–	–	–
NC(=O)[C@@H]1CC[C@@H]2CN1C(=O)N2OS(=O)(=O)O [avibactam free acid, [(2S,5R)-2-carbamoyl-7-oxo-1,6-diazabicylco[3.2.1]octan-6-yl] hydrogen sulfate]	–	–	–	about 0.3 weight %	at least 130 °C	very stable against temperature stress	no antibacterial activity at clinically relevant doses	low hygroscopicity	very stable against moisture
NC(=O)C1CCC2CN1C(=O)N2OS(=O)(=O)[O-].O.[Na+] (stereo not shown) [form A]	–	–	–	–	–	dehydrates to the anhydrous form B	–	–	–
